Test results: US20090226909A1 (Tel HaShomer Medical Research Infrastructure and Services …, priority 2006, published 2009)
Where “and” joins values, the source holds several entries; their conditions need not be identical. Equal values may be shown once.

Experiments:
[1] = two patients with VKORC1 Asp36Tyr; Geisen 2005b; cited from earlier work
[2] = Effect of combined CYP2C9, VKORC1 and CALU genotypes on warfarin dose requirements (FIG. 2); type: in vivo, human; settings: dotted line of FIG. 2
Description: The combined genotypes are ordered according to the model proposed by Wallin R, et al., 2001, assuming the reduced VKORC1 activity associated with the VKORC1 6853G→C polymorphism and the reduced activity of CALU associated with the CALU 73G→A (R4Q) polymorphism and assigning equal weight to CYP2C9 and VKORC1 genotypes. […] CYP2C9=cytochrome P450 2C9; VKORC1=vitamin K epoxide reductase component 1; CALU=calumenin;

[3] = Warfarin dose requirements in 99 unselected warfarin-treated subjects at stable INR, by VKORC1 Asp36Tyr (D36Y) carrier status; type: in vivo, human
[4] = CYP2C9*1 (wild type) allele; Higashi 2002, Sconce 2005; cited from earlier work
[5] = Warfarin dose requirements in selected warfarin resistant and warfarin sensitive patients at stable therapeutic INR; type: in vivo, human
Protocol: Aliquots of fresh whole blood were drawn for INR determination and DNA extraction.
Data Analyses—Statistical analyses were performed using SPSS software (version 11.0, SPSS Inc.) and GB-STAT software package (version 8.0, Dynamic Microsystems Inc.). Relevant statistical applications are mentioned in the text, odds ratios (OR) are presented with 95% confidence limits, p value of <0.05 indicates statistical significance.

[6] = 23 selected resistant and sensitive subjects

SMILES	phenprocoumon requirement to maintain INR between 2.0 and 3.0 [1]	median weight-normalized warfarin dose [2] [mg/day]	INR maintained under warfarin, range ([3]; 99 unselected warfarin-treated subjects)	INR maintained under warfarin ([3]; 99 unselected warfarin-treated subjects, stable INR)	warfarin dose requirements, range ([3]; carriers of VKORC1 Asp36Tyr (8/99), upper dose quartile)	warfarin dose requirements, range ([3]; non-carriers of Asp36Tyr (n=91))	mean warfarin dose required ([3]; non-carriers of Asp36Tyr (n=91), mean±SD) [mg/week]	mean warfarin dose ([3]; whole unselected warfarin-treated group (N=99), stable INR) [mg/week]	warfarin doses associated with CYP2C9*1 variant [4]	INR maintained under warfarin [5, 6]	INR maintained under warfarin, range [5, 6]	mean warfarin weekly dose ([5]; warfarin resistant group (N=15, subjects 1-15))	mean warfarin weekly dose ([5]; warfarin sensitive group (N=8, subjects 16-23))
CCC(c1ccccc1)c1c(O)c2ccccc2oc1=O (stereo not shown) [phenprocoumon]	40-50 mg per week	–	–	–	–	–	–	–	–	–	–	–	–
CC(=O)CC(c1ccccc1)c1c(O)c2ccccc2oc1=O (stereo not shown) [warfarin]	–	4.8	1.9-4.2	2.7±0.5	70-105 mg/week and > 70 mg/week	8-70 mg/week	42.7±7.5	39.4±7.8	28-39 mg/week	2.7±0.5	1.9-4.2	112.8±29 mg/week and 112.8 mg/week	10.5±2.32 mg/week and 10.5 mg/week
